Tests used:
[1] = buffer, pH 2
[2] = buffer, pH 2; remark: listed apart in the source
physchem [3] = assay: physchem
[4] = octanol/water
physchem [5] = conditions: octanol/water

Compound	log K [1]	log K [2]	pKa (physchem [3])	logPc [4]	logP (physchem [5])
NCC(O)c1ccc(O)cc1 (stereo unspecified) [OCTOPAMINE]	1.15	0.44	8.81		
O=C1C[C@@H]2OCC=C3CN4CC[C@]56c7ccccc7N1[C@H]5[C@H]2[C@H]3C[C@H]46 [STRYCHNINE]	0.06	1.18			
CC(C)NCC(O)COc1cccc2[nH]c3ccccc3c12 (stereo unspecified) [CARAZOLOL]	-0.01	2.97	9.52	0.77	
C=CCOc1ccccc1OCC(O)CNC(C)C (stereo unspecified) [OXPRENOLOL]	-0.34	1.43	9.57	-0.13	
CC([C@H](O)c1ccccc1)N(C)C (stereo partly specified) [METHYLEPHEDRINE]	-0.14	0.64	9		1.55
CC(C)NCC(O)COc1cccc2ccccc12 (stereo unspecified) [PROPRANOLOL]	-0.19	2.71			
C1COCCN1 [MORPHOLINE]	0.48	-0.27			
CN(C)Cc1ccccc1	-0.23	0.43	9.02		1.91
CC(=O)Oc1cc(C(C)C)c(OCCN(C)C)cc1C [MOXISYLYTE]	-0.86	1.53	8.72		
CC(C)(C)NC[C@H](O)COc1ccccc1C1CCCC1 [PENBUTOLOL]	-0.51	3.08	9.92	1.32	4.62
COCCc1ccc(OCC(O)CNC(C)C)cc1 (stereo unspecified) [METOPROLOL]	-0.27	1.1		-1.1	
CC(=O)Oc1c(C)cc(OCC(O)CNC(C)C)c(C)c1C (stereo unspecified) [METIPRANOLOL]	-0.5	1.57	9.54	-0.26	
CC(C)NCC(O)COc1ccc(COCCOC(C)C)cc1 (stereo unspecified) [BISOPROLOL]	-0.41	1.17		-1.22	
C1COC(NC(C2CC2)C2CC2)=N1 [RILMENIDINE]	-0.41	0.88	9.22		1.7
COC(=O)[C@@H](N)Cc1ccc(O)cc1 [TYROSINE METHYL ESTER]	0.57	0.26			
CN1CCC[C@H]1c1cccnc1 [NICOTINE]	0.14	-0.02	3.4		1.34
COc1ccccc1OCCNCC(O)COc1cccc2[nH]c3ccccc3c12 (stereo unspecified) [CARVEDILOL]	-0.2	3.1	7.97	1.92	
CCN(CC)CCOC(=O)c1ccc(N)cc1 [PROCAINE]	-0.26	1.05	9		
NCCO [MONOETHANOLAMINE]	1.1	-0.54	0.92		
CCCNC(C)C(=O)Nc1ccccc1C (stereo unspecified) [PRILOCAINE]	-0.17	0.93	7.8		
CN1CCc2cccc3c2[C@H]1Cc1ccc(O)c(O)c1-3 [APOMORPHINE]	0.33	2.74			2.49
NCCc1c[nH]c2ccc(O)cc12 [SEROTONIN]	1.15	1.19			
CC(C)(C)NCC(O)COc1cccc2c1CC(O)C(O)C2 (stereo unspecified) [NADOLOL]	0.5	0.59			0.81
CC(C)NCC(O)COc1cccc2[nH]ccc12 (stereo unspecified) [PINDOLOL]	0.08	1.63		-1.32	
CC(C)(C)NC[C@H](O)COc1nsnc1N1CCOCC1 [TIMOLOL]	0.08	0.9	9.53	-0.94	2.12
Cc1cccc(C)c1NC(=O)C1CCCCN1C (stereo unspecified) [MEPIVACAINE]	-0.18	0.85	7.6		
CCCCN [BUTYLAMINE]	0.29	0.756	10.8		
C=CCc1ccccc1OCC(O)CNC(C)C (stereo unspecified) [ALPRENOLOL]	-0.36	2.02		0.25	
